Experimental data reported in US20090035394A1, “USE OF DNA-PK INHIBITION TO SENSITISE ATM DEFICIENT CANCERS TO DNA-DAMAGING CANCER THERAPIES” (priority 2005, published 2009).
Entries after “also recorded” stand apart in the source; their conditions may differ.

What was measured:
Format in all cases: cell-based, human
pEBS7 (ATM-null) cells [1] = test: Chemopotentiation, sulforhodamine B growth assay in 96 well plates; details: for % survival / Avg (absorbance at 564 nm): pEBS7
Procedure: (§1) The A-T fibroblast AT221JE-T cells (pEBS7, herein referred to as ATM-null cells) and the trans-complemented ATM+/+ (pEBS7-YZ5, herein referred to as ATM-competent cells) were grown in DMEM+20% FBS PSG and 100 ug/ml hygromycin. These cells are immortalised fibroblasts from an A-T patient which were transfected with pEBS7-YZ5 vector coding for full length ATM and the hygromycin resistance marker or pEBS7 vector, coding for the hygromycin resistance marker only. (Ziv Y et al (1997) Oncogene 15, 159-67)
(§2) Following a 4-hour incubation to allow cell adherence, 5 μl DNA-PKcS inhibitor KU-0060648 (final concentration 0.5 μM) or DMSO/PBS equivalent was added. After a further 1 hour incubation, 5 μl of chemotherapeutic drug was added per well (see table 1). Drugs were removed after 16 hours and 150 μl fresh medium added per well. After 24h, one plate for each cell line was fixed and stained to account for background differences between the lines. Five days after seeding, the medium was aspirated from the wells of the remaining assay plates and 100 μl ice cold 10% TCA added for 30 minutes at 4° C. The wells were then washed four times with tap water and 50 μl 0.4% sulforhodamine B in 1% acetic acid added per well. After 15 minutes incubation at room temperature, excess stain was washed from the wells with 1% acetic acid. 100 μl […] pH6.8 was then added per well, the plates shaken to resuspend the stain and the absorbance at 564 nm determined.

[2] = tested on: pEBS7-YZ5 (ATM-competent, ATM+/+) cells; test: as above; details: for % survival / Avg (absorbance at 564 nm): pEBS7-YZ
Procedure: as §1, §2

pEBS7 (ATM-null) cells [3] = test: Radio-potentiation, colony formation after ionising radiation; details: for % survival: ATM-null pEBS7
Procedure: as §1
(§3) To show radio-potentiation, 2×10^5 cells per well were seeded into 6 well cluster plates. One plate was used for each dose of irradiation. After allowing the cells to adhere for 4 hours, the cells were dosed with a final concentration of 0.5 μM of the DNA-PKcs inhibitor KU-0060648 or equivalent DMSO/PBS control. After further incubation for 1 hour, the cells were irradiated with 0, 0.5, 1, 2 and 4 Grays. After 16 hours incubation, the cells were washed with 1 ml PBS and 500 μl trypsin EDTA added for 5 minutes at 37° C. 1.5 ml fresh medium was then added and the cell density in the untreated (0 Gy) wells determined. All subsequent calculations for seeding densities were performed according to this cell count. Cells were then replated into 2 mls fresh medium in 6 well cluster plates at the appropriate cell densities. After 6 days' incubation, the medium was removed by aspiration and cell colonies stained using 400 μl per well Giemsa stain for 20 minutes. Excess stain was washed from the plates with tap water and the plates left to air-dry. The number of colonies per well was then counted using Colcount software.

[4] = tested on: pEBS7-YZ5 (ATM-competent, ATM+/+) cells; test: as above; details: for % survival: ATM-competent pEBS7-YZ
Procedure: as §1, §3

[5] = KU-0060648 0.5 μM + doxorubicin 0
[6] = KU-0060648 0.5 μM + doxorubicin 0.01 (unit not given)
[7] = KU-0060648 0.5 μM + doxorubicin 0.025 (unit not given)
[8] = KU-0060648 0.5 μM + doxorubicin 0.05 (unit not given)
[9] = KU-0060648 0.5 μM + doxorubicin 0.075 (unit not given)
[10] = KU-0060648 0.5 μM + doxorubicin 0.1 (unit not given)
[11] = KU-0060648 0.5 μM + doxorubicin 0.25 (unit not given)
[12] = KU-0060648 0.5 μM + doxorubicin 0.5 (unit not given)
[13] = KU-0060648 0.5 μM + doxorubicin 0.75 (unit not given)
[14] = KU-0060648 0.5 μM + doxorubicin 1 (unit not given)
[15] = KU-0060648 0.5 μM + doxorubicin 2.5 (unit not given)
[16] = KU-0060648 0.5 μM + doxorubicin 5 (unit not given)
[17] = KU-0060648 0.5 μM + etoposide 0
[18] = KU-0060648 0.5 μM + etoposide 0.01 (μg/ml per Table 1)
[19] = KU-0060648 0.5 μM + etoposide 0.025 (μg/ml per Table 1)
[20] = KU-0060648 0.5 μM + etoposide 0.05 (μg/ml per Table 1)
[21] = KU-0060648 0.5 μM + etoposide 0.075 (μg/ml per Table 1)
[22] = KU-0060648 0.5 μM + etoposide 0.1 (μg/ml per Table 1)
[23] = KU-0060648 0.5 μM + etoposide 0.25 (μg/ml per Table 1)
[24] = KU-0060648 0.5 μM + etoposide 0.5 (μg/ml per Table 1)
[25] = KU-0060648 0.5 μM + etoposide 0.75 (μg/ml per Table 1)
[26] = KU-0060648 0.5 μM + etoposide 1 (μg/ml per Table 1)
[27] = KU-0060648 0.5 μM + etoposide 2.5 (μg/ml per Table 1)
[28] = KU-0060648 0.5 μM + etoposide 5 (μg/ml per Table 1)

CCN1CCN(CC(=O)Nc2ccc(-c3cccc4c(=O)cc(N5CCOCC5)oc34)c3sc4ccccc4c23)CC1 [KU-0060648, 2-(4-Ethyl-piperazin-1-yl)-N-[4-(2-morpholin-4-yl-4-oxo-4H-1-benzopyran-8-yl)-dibenzothiophen-1-yl]-acetamide]
potentiation of etoposide (pEBS7 (ATM-null) cells [1]; ATM-null cells): increased sensitisation; also recorded: significantly potentiated
potentiation of the effect of doxorubicin (pEBS7 (ATM-null) cells [1]; ATM-null cells): increased sensitivity; also recorded: significantly potentiate
% survival (pEBS7 (ATM-null) cells [1]; [5]): 100%
Avg (absorbance at 564 nm) (pEBS7 (ATM-null) cells [1]; [5]): 1.42
% survival (pEBS7 (ATM-null) cells [1]; [6]): 107.9%
Avg (absorbance at 564 nm) (pEBS7 (ATM-null) cells [1]; [6]): 1.53
% survival (pEBS7 (ATM-null) cells [1]; [7]): 87.0%
Avg (absorbance at 564 nm) (pEBS7 (ATM-null) cells [1]; [7]): 1.23
% survival (pEBS7 (ATM-null) cells [1]; [8]): 81.3%
Avg (absorbance at 564 nm) (pEBS7 (ATM-null) cells [1]; [8]): 1.15
% survival (pEBS7 (ATM-null) cells [1]; [9]): 82.3%
Avg (absorbance at 564 nm) (pEBS7 (ATM-null) cells [1]; [9]): 1.17
% survival (pEBS7 (ATM-null) cells [1]; [10]): 88.7%
Avg (absorbance at 564 nm) (pEBS7 (ATM-null) cells [1]; [10]): 1.26
% survival (pEBS7 (ATM-null) cells [1]; [11]): 22.1%
Avg (absorbance at 564 nm) (pEBS7 (ATM-null) cells [1]; [11]): 0.31
% survival (pEBS7 (ATM-null) cells [1]; [12]): 6.2%
Avg (absorbance at 564 nm) (pEBS7 (ATM-null) cells [1]; [12]): 0.09
% survival (pEBS7 (ATM-null) cells [1]; [13]): 0.6%
Avg (absorbance at 564 nm) (pEBS7 (ATM-null) cells [1]; [13]): 0.01
% survival (pEBS7 (ATM-null) cells [1]; [14]): −2.2%
Avg (absorbance at 564 nm) (pEBS7 (ATM-null) cells [1]; [14]): −0.03
% survival (pEBS7 (ATM-null) cells [1]; [15]): −2.0%
Avg (absorbance at 564 nm) (pEBS7 (ATM-null) cells [1]; [15]): −0.03
% survival (pEBS7 (ATM-null) cells [1]; [16]): −0.8%
Avg (absorbance at 564 nm) (pEBS7 (ATM-null) cells [1]; [16]): −0.01
% survival (pEBS7 (ATM-null) cells [1]; [17]): 100%
Avg (absorbance at 564 nm) (pEBS7 (ATM-null) cells [1]; [17]): 1.61
% survival (pEBS7 (ATM-null) cells [1]; [18]): 84.7%
Avg (absorbance at 564 nm) (pEBS7 (ATM-null) cells [1]; [18]): 1.36
% survival (pEBS7 (ATM-null) cells [1]; [19]): 72.7%
Avg (absorbance at 564 nm) (pEBS7 (ATM-null) cells [1]; [19]): 1.17
% survival (pEBS7 (ATM-null) cells [1]; [20]): 72.7%
Avg (absorbance at 564 nm) (pEBS7 (ATM-null) cells [1]; [20]): 1.17
% survival (pEBS7 (ATM-null) cells [1]; [21]): 62.3%
Avg (absorbance at 564 nm) (pEBS7 (ATM-null) cells [1]; [21]): 1.00
% survival (pEBS7 (ATM-null) cells [1]; [22]): 27.9%
Avg (absorbance at 564 nm) (pEBS7 (ATM-null) cells [1]; [22]): 0.45
% survival (pEBS7 (ATM-null) cells [1]; [23]): 13.6%
Avg (absorbance at 564 nm) (pEBS7 (ATM-null) cells [1]; [23]): 0.22
% survival (pEBS7 (ATM-null) cells [1]; [24]): 7.9%
Avg (absorbance at 564 nm) (pEBS7 (ATM-null) cells [1]; [24]): 0.13
% survival (pEBS7 (ATM-null) cells [1]; [25]): 1.2%
Avg (absorbance at 564 nm) (pEBS7 (ATM-null) cells [1]; [25]): 0.02
% survival (pEBS7 (ATM-null) cells [1]; [26]): −0.4%
Avg (absorbance at 564 nm) (pEBS7 (ATM-null) cells [1]; [26]): −0.01
% survival (pEBS7 (ATM-null) cells [1]; [27]): −1.5%
Avg (absorbance at 564 nm) (pEBS7 (ATM-null) cells [1]; [27]): −0.02
% survival (pEBS7 (ATM-null) cells [1]; [28]): −1.7%
Avg (absorbance at 564 nm) (pEBS7 (ATM-null) cells [1]; [28]): −0.03
potentiation of etoposide ([2]; ATM-competent cells): not
potentiation of the effect of doxorubicin ([2]; ATM-competent cells): not
% survival [2, 5]: 100%
Avg (absorbance at 564 nm) [2, 5]: 1.62
% survival [2, 6]: 92.3%
Avg (absorbance at 564 nm) [2, 6]: 1.50
% survival [2, 7]: 96.1%
Avg (absorbance at 564 nm) [2, 7]: 1.56
% survival [2, 8]: 102.9%
Avg (absorbance at 564 nm) [2, 8]: 1.67
% survival [2, 9]: 94.1%
Avg (absorbance at 564 nm) [2, 9]: 1.53
% survival [2, 10]: 98.5%
Avg (absorbance at 564 nm) [2, 10]: 1.60
% survival [2, 11]: 80.4%
Avg (absorbance at 564 nm) [2, 11]: 1.30
% survival [2, 12]: 36.6%
Avg (absorbance at 564 nm) [2, 12]: 0.59
% survival [2, 13]: 23.4%
Avg (absorbance at 564 nm) [2, 13]: 0.38
% survival [2, 14]: 1.1%
Avg (absorbance at 564 nm) [2, 14]: 0.02
% survival [2, 15]: −2.1%
Avg (absorbance at 564 nm) [2, 15]: −0.03
% survival [2, 16]: −1.9%
Avg (absorbance at 564 nm) [2, 16]: −0.03
% survival [2, 17]: 100%
Avg (absorbance at 564 nm) [2, 17]: 1.79
% survival [2, 18]: 88.8%
Avg (absorbance at 564 nm) [2, 18]: 1.59
% survival [2, 19]: 84.9%
Avg (absorbance at 564 nm) [2, 19]: 1.52
% survival [2, 20]: 87.2%
Avg (absorbance at 564 nm) [2, 20]: 1.56
% survival [2, 21]: 86.1%
Avg (absorbance at 564 nm) [2, 21]: 1.54
% survival [2, 22]: 88.9%
Avg (absorbance at 564 nm) [2, 22]: 1.59
% survival [2, 23]: 102.7%
Avg (absorbance at 564 nm) [2, 23]: 1.84
% survival [2, 24]: 55.0%
Avg (absorbance at 564 nm) [2, 24]: 0.99
% survival [2, 25]: 27.6%
Avg (absorbance at 564 nm) [2, 25]: 0.49
% survival [2, 26]: 4.5%
Avg (absorbance at 564 nm) [2, 26]: 0.08
% survival [2, 27]: 5.7%
Avg (absorbance at 564 nm) [2, 27]: 0.10
% survival [2, 28]: 8.6%
Avg (absorbance at 564 nm) [2, 28]: 0.15
potentiation of the effect of irradiation (pEBS7 (ATM-null) cells [3]; ATM-null cells): increased sensitivity; also recorded: significantly potentiate
% survival (pEBS7 (ATM-null) cells [3]; KU-0060648 0.5 μM + IR 0 Gy): 100.0%
% survival (pEBS7 (ATM-null) cells [3]; KU-0060648 0.5 μM + IR 0.5 Gy): 15.8%
% survival (pEBS7 (ATM-null) cells [3]; KU-0060648 0.5 μM + IR 1 Gy): 3.8%
% survival (pEBS7 (ATM-null) cells [3]; KU-0060648 0.5 μM + IR 2 Gy): 1.3%
% survival (pEBS7 (ATM-null) cells [3]; KU-0060648 0.5 μM + IR 4 Gy): 0.3%
2Gy DMR (dose modification ratio) (pEBS7 (ATM-null) cells [3]; single 2 Gy without / with KU-0060648 (0.5 μM), pEBS7 (ATM-null)): 5.7
potentiation of the effect of irradiation ([4]; ATM-competent cells): not
% survival ([4]; KU-0060648 0.5 μM + IR 0 Gy): 100.0%
% survival ([4]; KU-0060648 0.5 μM + IR 0.5 Gy): 39.3%
% survival ([4]; KU-0060648 0.5 μM + IR 1 Gy): 13.5%
% survival ([4]; KU-0060648 0.5 μM + IR 2 Gy): 6.2%
% survival ([4]; KU-0060648 0.5 μM + IR 4 Gy): 1.7%
2Gy DMR (dose modification ratio) ([4]; single 2 Gy without / with KU-0060648 (0.5 μM), pEBS7-YZ (ATM-competent)): 2.0
